Measured values as given in patent US9198925B2, “Pharmaceutical formulations containing an SGLT2 inhibitor” (AstraZeneca AB, priority 2007, dated 2015).
Where two headings read alike, the source gives them in different places.

What was measured:
healthy subjects [1] = conditions: single ascending dose study, cited from earlier work
[2] = tested on: treatment naive type II diabetes mellitus patients; experiment: 12-week study of weight loss and glucosuria in patients with type II diabetes; format: in vivo, human; conditions: for Mean reduction in BMI: absolute change
Description: Treatment naive type II diabetes mellitus patients, n=389, with inadequate blood glycemic control and low mean glucosuria at baseline were given once-daily oral treatments with dapagliflozin propylene glycol hydrate (2.5, 5, 10, 20, or 50 mgs), metformin XR® (750 mg titrated to 1500 mgs), or placebo over 12-weeks.

[3] = tested on: diet-induced obese (DIO) rats
Description: Obesity was induced in male Sprague-Dawley rats (mean baseline weight=220 g) via ad libitum access to 2 diets: normal diet (Harlan Teklad rat chow; 3.5 kcal/gm, 5% vegetable fat) and high-sucrose/high-fat diet (Research Diets D12327; 4.6 kcal/gm, 40% sucrose and 40% vegetable fat). Rats under these conditions typically consume approximately 30 g/day of the high-sucrose/high-fat chow and 2 g/day of the normal Harlan Teklad rat chow.
DIO rats were sorted into treatment groups based on body weight, total kilocalories consumed, and body composition (via echo MRI). […] Body weight and the weight of both diets were determined daily. Respiratory quotient data were obtained on days 2 and 15 of the study, echo MRI was obtained on day 22, and blood was collected for a fasting clinical chemistry tests on day 27.
Percent weight changes were calculated as daily weight—day 0 weight×100.

healthy subjects [4] = conditions: single ascending dose study
Description: (§1) Patients with type 2 diabetes were treated with placebo, 5 mg dapagliflozin propylene glycol hydrate, 25 mg dapagliflozin propylene glycol hydrate, or 100 mg dapagliflozin propylene glycol hydrate.

[5] = tested on: subjects with type 2 diabetes; conditions: 14-day multiple dose
Description: as §1

[6] = tested on: diet-induced obese (DIO) rats; conditions: oral 1, 5 or 10 mg/kg, urine volume x glucose concentration
Description: Obesity was induced in male Sprague-Dawley rats (mean baseline weight=220 g) via ad libitum access to 2 diets: normal diet (Harlan Teklad rat chow; 3.5 kcal/gm, 5% vegetable fat) and high-sucrose/high-fat diet (Research Diets D12327; 4.6 kcal/gm, 40% sucrose and 40% vegetable fat).
Urine volume and glucose concentration were used to determine total urine glucose loss over 24 hours post dose.
Total glucose lost was calculated as volume of urine x glucose concentration.

[7] = metformin XR 750 mg titrated to 1500 mgs, 12 weeks, n = 56
[8] = 2.5 mgs once daily, 12 weeks, n = 59
[9] = 5 mgs once daily, 12 weeks, n = 58
[10] = 10 mgs once daily, 12 weeks, n = 47
[11] = 20 mgs once daily, 12 weeks, n = 59
[12] = 50 mgs once daily, 12 weeks, n = 56

For `CCOC(=O)OC[C@H]1O[C@@H](Oc2ccccc2Cc2ccc(OC)cc2)[C@H](O)[C@@H](O)[C@@H]1O` [GSK 869,682], the “amount of glucose excretion/day” value (healthy subjects [1]; 50 mg) is given as “approximately 5 g”, the “amount of glucose excretion/day” value (healthy subjects [1]; 100 mg) is given as ~6 g and the “amount of glucose excretion/day” value (healthy subjects [1]; 200 mg) is given as ~12 g. The “amount of glucose excretion/day” value (healthy subjects [1]; 500 mg) was ~16 g.
In the case of `CN(C)C(=N)N=C(N)N` [Metformin, metformin, reference compound], the “Mean reduction in BMI” value [2, 7] is reported as −0.5, the “Mean reduction in weight (%)” value [2, 7] is reported as −1.7% and the “mean glucosuria at week 12” value ([2]; type II diabetes patients, metformin XR 750 mg titrated to 1500 mgs, week 12) is reported as 5.6 grams/day.
In the case of `CCOc1ccc(Cc2cc([C@@H]3O[C@H](CO)[C@@H](O)[C@H](O)[C@H]3O)ccc2Cl)cc1.C[C@H](O)CO.O` [dapagliflozin propylene glycol hydrate], the “body weight loss versus vehicle” value ([3]; oral 0.5, 1 or 5 mpk, administered daily over 25 days, p<0.05 versus vehicle) is reported as “significant weight loss”, the “body weight loss when compound-induced overeating was prevented (pair fed to vehicle group)” value ([3]; pair fed subgroup, compared with ad libitum treated rats) is reported as “the weight loss was greater” and the “amount of glucose excretion/day” value (healthy subjects [4]; 5 mg) is reported as “approximately 30 g”. For the same compound, the “amount of glucose excretion/day” value (healthy subjects [4]; 20 mg) was ~55 g, the “amount of glucose excretion/day” value (healthy subjects [4]; 50 mg) was ~60 g and the “amount of glucose excretion/day” value (healthy subjects [4]; 100 mg) was ~70 g. The “24-hour urine glucose excretion compared to placebo” value ([5]; 5 mg) was “significantly higher”, the “24-hour urine glucose excretion compared to placebo” value ([5]; 25 mg) was “significantly higher” and the “24-hour urine glucose excretion compared to placebo” value ([5]; 100 mg) was “significantly higher”. For the same compound, the “total amount of glucose lost in urine over 24 hours post dose” value [6] was “significantly increased with increasing doses”, the “Mean reduction in weight (%)” value [2, 8] was −2.7% and the “Mean reduction in weight (%)” value [2, 9] was −2.5%. For the same compound, the “Mean reduction in weight (%)” value [2, 10] was −2.7%, the “Mean reduction in weight (%)” value [2, 11] was −3.4% and the “Mean reduction in weight (%)” value [2, 12] was −3.4%. The “Mean reduction in BMI” value [2, 8] was −0.9, the “Mean reduction in BMI” value [2, 9] was −0.8 and the “Mean reduction in BMI” value [2, 10] was −0.8. The “Mean reduction in BMI” value [2, 11] was −1.0, the “Mean reduction in BMI” value [2, 12] was −1.1 and the “proportion of patients who achieved a 5% weight reduction, versus placebo” value ([2]; each dose group (2.5, 5, 10, 20, 50 mgs), 12 weeks) was “higher proportion”.
